According to US10975068B2, “6-aminopyridin-3-yl thiazoles as modulators of RORγT” (Janssen Pharmaceutica NV, priority 2016, dated 2021):
Read-outs that look alike come from different tables or passages of the source.

Experiments:
[1] = target: human RORγt ligand binding domain (RORγt LBD) (Homo sapiens (Human), UniProt P51449); assay: RORγt ThermoFluor® assay (thermal shift binding); details: read-out: ThermoFluor® Assay, Kd
Method in brief: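 Binding was inferred from thermal stabilisation (ΔTm) of the E. coli-expressed RORγt LBD (0.065 mg/mL), monitored by 1,8-ANS (60 μM) emission at 500 nm during a 1 °C/min ramp. Buffer was Hepes 100 mM pH 7.0 with NaCl, GSH and Tween-20.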

full-length human RORγt = full-length human RORγt (Homo sapiens (Human), UniProt P51449); assay: RORγt (full-length human) reporter assay, Conditions B or C; type: cell-based; details: for inhibition at 3 µM: at 3 μM compound concentration, read-out: RORγt (FL) Reporter Assay B or C, % inhibition; for IC50: read-out: RORγt (FL) Reporter Assay B or C, IC50; for inhibition at 6 µM: read-out: RORγt (FL) Reporter Assay B or C, % inhibition @ 6 μM, Conditions B or C; for RORγt (FL) Reporter Assay B or C, % inhibition (value marked *): marked *: footnote not given
Sequence of full-length human RORγt (P51449 other isoform, or with tags, fused parts or gaps): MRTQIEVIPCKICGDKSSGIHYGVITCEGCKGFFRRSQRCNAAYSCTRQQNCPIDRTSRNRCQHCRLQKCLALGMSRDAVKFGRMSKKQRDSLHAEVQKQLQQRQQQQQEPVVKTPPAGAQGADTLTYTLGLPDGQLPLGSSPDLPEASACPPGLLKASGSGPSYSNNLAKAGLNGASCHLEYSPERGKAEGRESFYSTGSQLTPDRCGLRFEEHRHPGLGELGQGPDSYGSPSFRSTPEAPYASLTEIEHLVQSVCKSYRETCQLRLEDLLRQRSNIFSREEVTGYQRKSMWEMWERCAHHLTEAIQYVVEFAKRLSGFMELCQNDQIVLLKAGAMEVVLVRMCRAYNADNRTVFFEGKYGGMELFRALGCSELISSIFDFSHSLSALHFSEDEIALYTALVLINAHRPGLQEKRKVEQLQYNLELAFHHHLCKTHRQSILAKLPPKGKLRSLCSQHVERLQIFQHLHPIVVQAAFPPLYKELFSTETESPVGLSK
Method in brief: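 Readout is dual luciferase: firefly (GAL4-driven) normalized to DMSO-only and saturating-reference controls, then to CMV-Renilla. Full-length human RORγt fused to GAL4-DBD was transiently expressed in HEK293T; compound exposure ran overnight (16-20 h) starting 4-6 h after transfection, final FBS 1.3%, DMSO 0.1%.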

Sequence of human RORγt ligand binding domain (RORγt LBD) (P51449 other isoform, or with tags, fused parts or gaps): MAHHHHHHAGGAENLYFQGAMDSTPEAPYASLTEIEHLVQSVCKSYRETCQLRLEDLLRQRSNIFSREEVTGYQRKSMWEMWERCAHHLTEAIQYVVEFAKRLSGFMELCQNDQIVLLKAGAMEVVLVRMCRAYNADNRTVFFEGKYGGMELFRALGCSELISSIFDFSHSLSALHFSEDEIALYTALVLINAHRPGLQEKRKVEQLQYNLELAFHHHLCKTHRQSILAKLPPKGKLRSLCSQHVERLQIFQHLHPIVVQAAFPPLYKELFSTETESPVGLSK

Kd [1]	inhibition at 3 µM (full-length human RORγt)	IC50 (full-length human RORγt)	IC50 (full-length human RORγt; Conditions B or C)	inhibition at 6 µM (full-length human RORγt)	RORγt (FL) Reporter Assay B or C, % inhibition (value marked *) (full-length human RORγt; Conditions B or C)	SMILES
1.6 nM	108%	18 nM				CC[C@H](Nc1cc(C(F)F)c(-c2sc(C(=O)N[C@H]3CC[C@H]3O)nc2C(=O)N2CCC[C@@H]2C)cn1)C(F)(F)F (relative stereo) [Example 380, 5-(4-(Difluoromethyl)-6-(((S)-1,1,1-trifluorobutan-2-yl)amino)pyridin-3-yl)-N-((1S*,2R*)-2-hydroxycyclobutyl)-4-((S)-2-methylpyrrolidine-1-carbonyl)thiazole-2-carboxamide]
7.9 nM	111%	39 nM				C[C@H]1CCCN1C(=O)c1nc(C(=O)N2CCC(C)(O)C2)sc1-c1cnc(NC(C)(C)C)cc1C(F)(F)F (stereo partly drawn) [Example 364, (5-(6-(tert-Butylamino)-4-(trifluoromethyl)pyridin-3-yl)-2-(3-hydroxy-3-methylpyrrolidine-1-carbonyl)thiazol-4-yl)((S)-2-methylpyrrolidin-1-yl)methanone]
9.3 nM			42 nM	111%		C[C@H]1CCCN1C(=O)c1nc(C(=O)NCC(C)(C)O)sc1-c1cnc(NC2CCCC2)cc1C(F)F [Example 42, (S)-5-(6-(Cyclopentylamino)-4-(difluoromethyl)pyridin-3-yl)-N-(2-hydroxy-2-methylpropyl)-4-(2-methylpyrrolidine-1-carbonyl)thiazole-2-carboxamide]
33 nM			100 nM		112* %	C[C@H](Nc1cc(C(F)F)c(-c2sc(C(=O)N[C@H]3C[C@@H]3O)nc2C(=O)N2CCC[C@@H]2C)cn1)C(F)(F)F (relative stereo) [Example 223, 5-(4-(Difluoromethyl)-6-(((S)-1,1,1-trifluoropropan-2-yl)amino)pyridin-3-yl)-N-((1S*,2S*)-2-hydroxycyclopropyl)-4-((S)-2-methylpyrrolidine-1-carbonyl)thiazole-2-carboxamide]
18 nM	110%	50 nM				CC(C)[C@@H](C)Nc1cc(C(F)F)c(-c2sc(C(=O)NCC(C)(C)O)nc2C(=O)N2CCC[C@@H]2C)cn1 [Example 297, 5-(4-(Difluoromethyl)-6-(((R)-3-methylbutan-2-yl)amino)pyridine-3-yl)-N-(2-hydroxy-2-methylpropyl)-4-((S)-2-methylpyrrolidine-1-carbonyl)thiazole-2-carboxamide]
5.8 nM			55 nM		95* %	C[C@H]1CCCN1C(=O)c1nc(C(=O)NCC(C)(C)O)sc1-c1cnc(NC2(C)CCC2)cc1C(F)F [Example 173]
2.4 nM	93%	38 nM				C[C@H]1CCCN1C(=O)c1nc(C(=O)NC2CCS(=O)(=O)CC2)sc1-c1cnc(NC2(C)CCC2)cc1C(F)F [Example 324, (S)-5-(4-(Difluoromethyl)-6-((1-methylcyclobutyl)amino)pyridin-3-yl)-N-(1,1-dioxidotetrahydro-2H-thiopyran-4-yl)-4-(2-methylpyrrolidine-1-carbonyl)thiazole-2-carboxamide]
4.4 nM	103%	29 nM				C[C@H](Nc1cc(C(F)F)c(-c2sc(C(=O)N[C@H]3CC[C@H](O)C3)nc2C(=O)N2CCC[C@@H]2C)cn1)C(F)(F)F [Example 288, 5-(4-(Difluoromethyl)-6-(((S)-1,1,1-trifluoropropan-2-yl)amino)pyridin-3-yl)-N-((1S,3S)-3-hydroxycyclopentyl)-4-((S)-2-methylpyrrolidine-1-carbonyl)thiazole-2-carboxamide]
0.7 nM	106%	6.6 nM				C[C@H]1CCCN1C(=O)c1nc(C(=O)NC2CCC2O)sc1-c1cnc(NC(C)(C)C)cc1C(F)(F)F (stereo partly drawn) [Example 369, 5-(6-(tert-Butylamino)-4-(trifluoromethyl)pyridin-3-yl)-N-(trans-2-hydroxycyclobutyl)-4-((S)-2-methylpyrrolidine-1-carbonyl)thiazole-2-carboxamide]
3.8 nM	101%	60 nM				CC[C@H](Nc1cc(C(F)F)c(-c2sc(C(=O)N[C@@H]3CC[C@H]3O)nc2C(=O)N2CCC[C@@H]2C)cn1)C(F)(F)F (relative stereo) [Example 376, 5-(4-(Difluoromethyl)-6-(((S)-1,1,1-trifluorobutan-2-yl)amino)pyridin-3-yl)-N-((1R*,2R*)-2-hydroxycyclobutyl)-4-((S)-2-methylpyrrolidine-1-carbonyl)thiazole-2-carboxamide]
4 nM	106%	5.7 nM				C[C@H]1CCCN1C(=O)c1nc(C(=O)NCC(O)(C(F)(F)F)C(F)(F)F)sc1-c1cnc(NC(C)(C)C)cc1C(F)(F)F [Example 271, 5-[6-(tert-Butylamino)-4-(trifluoromethyl)-3-pyridyl]-4-[(2S)-2-methylpyrrolidine-1-carbonyl]-N-[3,3,3-trifluoro-2-hydroxy-2-(trifluoromethyl)propyl]thiazole-2-carboxamide]
3 nM	101%	25 nM				C[C@H]1CCCN1C(=O)c1nc(C(=O)NC2COC2)sc1-c1cnc(NC(C)(C)C)cc1C(F)(F)F [Example 259, 5-[6-(tert-Butylamino)-4-(trifluoromethyl)-3-pyridyl]-4-[(2S)-2-methylpyrrolidine-1-carbonyl]-N-(oxetan-3-yl)thiazole-2-carboxamide]
6.8 nM			140 nM		85* %	C[C@H](Nc1cc(C(F)F)c(-c2sc(C(=O)NC3CCS(=O)(=O)CC3)nc2C(=O)N2CCC[C@@H]2C)cn1)C(F)(F)F [Example 187, 5-(4-(Difluoromethyl)-6-(((S)-1,1,1-trifluoropropan-2-yl)amino)pyridine-3-yl)-N-(1,1-dioxidotetrahydro-2H-thiopyran-4-yl)-4-((S)-2-methylpyrrolidine-1-carbonyl)thiazole-2-carboxamide]
0.64 nM			25 nM		110* %	C[C@H]1CCCN1C(=O)c1nc(C(=O)NCC(C)(C)O)sc1-c1cnc(NC2(C(F)(F)F)CCC2)cc1C(F)(F)F [Example 104, (S)—N-(2-Hydroxy-2-methylpropyl)-4-(2-methylpyrrolidine-1-carbonyl)-5-(4-(trifluoromethyl)-6-((1-(trifluoromethyl)cyclobutyl)amino)pyridin-3-yl)thiazole-2-carboxamide]
0.12 nM			13 nM	105%		C[C@H](Nc1cc(C(F)(F)F)c(-c2sc(C(=O)NCC(C)(C)O)nc2C(=O)N2CCCC[C@@H]2C)cn1)C1CC1 [Example 39, 5-(6-(((S)-1-Cyclopropylethyl)amino)-4-(trifluoromethyl)pyridin-3-yl)-N-(2-hydroxy-2-methylpropyl)-4-((S)-2-methylpiperidine-1-carbonyl)thiazole-2-carboxamide]
18 nM	109%	79 nM				CC[C@H](Nc1cc(C(F)F)c(-c2sc(C(=O)N3CC4CCC(C3)O4)nc2C(=O)N2CCC[C@@H]2C)cn1)C(F)(F)F [Example 378, [5-[4-(Difluoromethyl)-6-[[(1S)-1-(trifluoromethyl)propyl]amino]-3-pyridyl]-2-(8-oxa-3-azabicyclo[3.2.1]octane-3-carbonyl)thiazol-4-yl]-[(2S)-2-methylpyrrolidin-1-yl]methanone]
1.1 nM	103%	42 nM				C[C@H]1CCCN1C(=O)c1nc(C(=O)NCC(O)C(F)(F)F)sc1-c1cnc(NC(C)(C)C)cc1C(F)(F)F (stereo in doubt) [Example 352, 5-[6-(tert-Butylamino)-4-(trifluoromethyl)-3-pyridyl]-4-(2-methylpyrrolidine-1-carbonyl)-N-(3,3,3-trifluoro-2-hydroxy-propyl)thiazole-2-carboxamide]
4.7 nM			27 nM		94* %	CC[C@H](Nc1cc(C(F)F)c(-c2sc(C(=O)NCC(C)(C)O)nc2C(=O)N2CCC[C@@H]2C)cn1)C1CC1 (relative stereo) [Example 166]

SMILES	Kd [1]	inhibition at 3 µM (full-length human RORγt)	IC50 (full-length human RORγt)	IC50 (full-length human RORγt; Conditions B or C)	inhibition at 6 µM (full-length human RORγt)	RORγt (FL) Reporter Assay B or C, % inhibition (value marked *) (full-length human RORγt; Conditions B or C)
C[C@H](Nc1cc(C(F)F)c(-c2sc(C(=O)NCC(C)(C)O)nc2C(=O)N2C3CCC2CC3)cn1)C1CC1 [Example 55, 4-((1s,4s)-7-Azabicyclo[2.2.1]heptane-7-carbonyl)-5-(6-(((S)-1-cyclopropylethyl)amino)-4-(difluoromethyl)pyridin-3-yl)-N-(2-hydroxy-2-methylpropyl)thiazole-2-carboxamide]	7.9 nM			31 nM		92* %
CC1(Nc2cc(C(F)F)c(-c3sc(C(=O)NC4CCS(=O)(=O)CC4)nc3C(=O)N3C4CCC3CC4)cn2)CCC1 [Example 331, 4-((1s,4s)-7-Azabicyclo[2.2.1]heptane-7-carbonyl)-5-(4-(difluoromethyl)-6-((1-methylcyclobutyl)amino)pyridin-3-yl)-N-(1,1-dioxidotetrahydro-2H-thiopyran-4-yl)thiazole-2-carboxamide]	1.5 nM	81%	23 nM			
